US11649255B2, “Indazoles as hematopoietic progenitor kinase 1 (HPK1) inhibitors and methods using same” (1st Biotherapeutics, Inc., priority 2020, dated 2023)

Molecular target: recombinant human HPK1 (Homo sapiens (Human), UniProt Q92918)
Test: HPK1 kinase assay (ADP-Glo)
Format: biochemical
Details: 25 μM ATP, MBP substrate
How it was run: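 Activity was read as ADP formed, detected by ADP-Glo luminescence after the reaction of 5 ng recombinant human HPK1 with MBP and ATP (stocks 0.5 μg/μl and 25 μM) for 40 min at 30 °C. Buffer was Tris pH 7.5 with MgCl2, BSA and DTT, with compound in 0.5% DMSO. IC50 came from inhibition curves.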

Chain of recombinant human HPK1 (Q92918 whole entry): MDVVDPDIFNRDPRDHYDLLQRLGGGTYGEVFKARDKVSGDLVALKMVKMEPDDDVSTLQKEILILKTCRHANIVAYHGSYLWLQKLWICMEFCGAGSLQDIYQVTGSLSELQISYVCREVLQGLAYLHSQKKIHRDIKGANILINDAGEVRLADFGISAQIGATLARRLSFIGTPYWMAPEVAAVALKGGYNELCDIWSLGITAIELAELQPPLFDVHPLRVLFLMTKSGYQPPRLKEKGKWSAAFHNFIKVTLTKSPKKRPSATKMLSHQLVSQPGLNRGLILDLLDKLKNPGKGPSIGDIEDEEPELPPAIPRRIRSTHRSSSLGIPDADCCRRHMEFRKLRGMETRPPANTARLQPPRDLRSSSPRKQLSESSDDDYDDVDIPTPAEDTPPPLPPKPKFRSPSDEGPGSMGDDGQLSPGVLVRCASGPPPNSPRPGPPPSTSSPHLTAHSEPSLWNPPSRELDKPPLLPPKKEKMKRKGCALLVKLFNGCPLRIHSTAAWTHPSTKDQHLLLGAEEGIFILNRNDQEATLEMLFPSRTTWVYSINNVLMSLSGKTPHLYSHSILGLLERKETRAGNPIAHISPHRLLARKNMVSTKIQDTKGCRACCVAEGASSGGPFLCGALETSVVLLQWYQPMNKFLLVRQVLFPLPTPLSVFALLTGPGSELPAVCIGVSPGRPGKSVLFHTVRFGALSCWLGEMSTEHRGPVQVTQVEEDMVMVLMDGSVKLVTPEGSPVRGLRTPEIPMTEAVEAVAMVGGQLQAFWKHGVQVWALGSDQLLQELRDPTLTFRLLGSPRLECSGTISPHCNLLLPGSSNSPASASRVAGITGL

| SMILES | IC50 [nM] |
| --- | --- |
| O=C(Nc1cn2cc(-c3c(C(F)(F)F)ccc4[nH]ncc34)ccc2n1)[C@@H]1C[C@@H]1F [Example 236, (1S,2S)-2-fluoro-N-(6-(5-(trifluoromethyl)-1H-indazol-4-yl)imidazo[1,2-a]pyridin-2-yl)cyclopropane-1-carboxamide] | < 100 |
| O=C(Nc1cn2cc(-c3c(Cl)ccc4[nH]ncc34)ccc2n1)[C@@H]1C[C@@H]1F [Example 237, (1S,2S)-N-(6-(5-chloro-1H-indazol-4-yl)imidazo[1,2-a]pyridin-2-yl)-2-fluorocyclopropane-1-carboxamide] | < 100 |
| O=C(Nc1cn2cc(-c3c(Br)ccc4[nH]ncc34)ccc2n1)[C@@H]1C[C@@H]1F [Example 238, (1S,2S)-N-(6-(5-bromo-1H-indazol-4-yl)imidazo[1,2-a]pyridin-2-yl)-2-fluorocyclopropane-1-carboxamide] | < 100 |
| CC(=O)c1ccc2[nH]ncc2c1-c1ccc2nc(NC(=O)C3CC3)cn2c1 [Example 239, N-(6-(5-acetyl-1H-indazol-4-yl)imidazo[1,2-a]pyridin-2-yl)cyclopropanecarboxamide] | < 100 |
| Nc1c(Cl)cc2[nH]ncc2c1-c1ccc2nc(NC(=O)C3CC3)cn2c1 [Example 240, N-(6-(5-amino-6-chloro-1H-indazol-4-yl)imidazo[1,2-a]pyridin-2-yl)cyclopropanecarboxamide] | 501 to 1000 |
| O=C(Nc1cn2cc(-c3c(C4CC4)c(F)cc4[nH]ncc34)ccc2n1)C1CC1 [Example 241, N-(6-(5-cyclopropyl-6-fluoro-1H-indazol-4-yl)imidazo[1,2-a]pyridin-2-yl)cyclopropanecarboxamide] | > 1000 |
| O=C(Nc1cn2cc(-c3c(Cl)c(F)cc4[nH]ncc34)ccc2n1)C1CC1 [Example 242, N-(6-(5-chloro-6-fluoro-1H-indazol-4-yl)imidazo[1,2-a]pyridin-2-yl)cyclopropanecarboxamide] | 101 to 500 |
| O=C(Nc1cn2cc(-c3c(Cl)c(F)cc4[nH]ncc34)ccc2n1)[C@@H]1C[C@@H]1F [Example 243, (1S,2S)-N-(6-(5-chloro-6-fluoro-1H-indazol-4-yl)imidazo[1,2-a]pyridin-2-yl)-2-fluorocyclopropane-1-carboxamide] | < 100 |
| O=C(Nc1cn2cc(-c3c(C4CC4)ccc4[nH]ncc34)ccc2n1)C1CC1 [Example 244, N-(6-(5-cyclopropyl-1H-indazol-4-yl)imidazo[1,2-a]pyridin-2-yl)cyclopropanecarboxamide] | 101 to 500 |
| Cc1c(F)cc2[nH]ncc2c1-c1ccc2nc(NC(=O)C3CC3)cn2c1 [Example 245, N-(6-(6-fluoro-5-methyl-1H-indazol-4-yl)imidazo[1,2-a]pyridin-2-yl)cyclopropanecarboxamide] | < 100 |
| CC(C)c1c(F)cc2[nH]ncc2c1-c1ccc2nc(NC(=O)C3CC3)cn2c1 [Example 246, N-(6-(6-fluoro-5-isopropyl-1H-indazol-4-yl)imidazo[1,2-a]pyridin-2-yl)cyclopropanecarboxamide] | < 100 |
| CSc1ccc2[nH]ncc2c1-c1ccc2nc(NC(=O)C3CC3)cn2c1 [Example 247, N-(6-(5-(methylthio)-1H-indazol-4-yl)imidazo[1,2-a]pyridin-2-yl)cyclopropanecarboxamide] | < 100 |
| CCc1c(F)cc2[nH]ncc2c1-c1ccc2nc(NC(=O)C3CC3)cn2c1 [Example 248, N-(6-(5-ethyl-6-fluoro-1H-indazol-4-yl)imidazo[1,2-a]pyridin-2-yl)cyclopropanecarboxamide] | < 100 |
| O=C(Nc1cn2cc(-c3c(C(F)F)ccc4[nH]ncc34)ccc2n1)C1CC1 [Example 249, N-(6-(5-(difluoromethyl)-1H-indazol-4-yl)imidazo[1,2-a]pyridin-2-yl)cyclopropanecarboxamide] | 101 to 500 |
| Cc1c(F)cc2[nH]ncc2c1-c1ccc2nc(NC(=O)[C@@H]3C[C@@H]3F)cn2c1 [Example 250, (1S,2S)-2-fluoro-N-(6-(6-fluoro-5-methyl-1H-indazol-4-yl)imidazo[1,2-a]pyridin-2-yl)cyclopropane-1-carboxamide] | < 100 |
| O=C(Nc1cn2cc(-c3c(CO)c(F)cc4[nH]ncc34)ccc2n1)C1CC1 [Example 251, N-(6-(6-fluoro-5-(hydroxymethyl)-1H-indazol-4-yl)imidazo[1,2-a]pyridin-2-yl)cyclopropanecarboxamide] | > 1000 |
| COc1c(F)cc2[nH]ncc2c1-c1ccc2nc(NC(=O)C3CC3)cn2c1 [Example 252, N-(6-(6-fluoro-5-methoxy-1H-indazol-4-yl)imidazo[1,2-a]pyridin-2-yl)cyclopropanecarboxamide] | < 100 |
| O=C(Nc1cn2cc(-c3c(C(F)F)c(F)cc4[nH]ncc34)ccc2n1)[C@@H]1C[C@@H]1F [Example 253, (1S,2S)-N-(6-(5-(difluoromethyl)-6-fluoro-1H-indazol-4-yl)imidazo[1,2-a]pyridin-2-yl)-2-fluorocyclopropane-1-carboxamide] | < 100 |
| O=C(Nc1cn2cc(-c3c(C(F)F)c(F)cc4[nH]ncc34)ccc2n1)C1CC1 [Example 255, N-(6-(5-(difluoromethyl)-6-fluoro-1H-indazol-4-yl)imidazo[1,2-a]pyridin-2-yl)cyclopropanecarboxamide] | < 100 |
| O=C(Nc1cn2cc(-c3c(Cl)c(F)c(Cl)c4[nH]ncc34)ccc2n1)[C@@H]1C[C@@H]1F [Example 256, (1S,2S)-N-(6-(5,7-dichloro-6-fluoro-1H-indazol-4-yl)imidazo[1,2-a]pyridin-2-yl)-2-fluorocyclopropane-1-carboxamide] | < 100 |
| Cc1c(F)c(C)c2[nH]ncc2c1-c1ccc2nc(NC(=O)[C@@H]3C[C@@H]3F)cn2c1 [Example 257, (1S,2S)-2-fluoro-N-(6-(6-fluoro-5,7-dimethyl-1H-indazol-4-yl)imidazo[1,2-a]pyridin-2-yl)cyclopropane-1-carboxamide] | < 100 |
| CP(C)(=O)c1c(F)c(Cl)c(-c2ccc3nc(NC(=O)[C@@H]4C[C@@H]4F)cn3c2)c2cn[nH]c12 [Example 259, (1S,2S)-N-(6-(5-chloro-7-(dimethylphosphoryl)-6-fluoro-1H-indazol-4-yl)imidazo[1,2-a]pyridin-2-yl)-2-fluorocyclopropane-1-carboxamide] | > 1000 |
| Cc1c(F)c(Cl)c2[nH]ncc2c1-c1ccc2nc(NC(=O)[C@@H]3C[C@@H]3F)cn2c1 [Example 260, (1S,2S)-N-(6-(7-chloro-6-fluoro-5-methyl-1H-indazol-4-yl)imidazo[1,2-a]pyridin-2-yl)-2-fluorocyclopropane-1-carboxamide] | < 100 |
| O=C(Nc1cn2cc(-c3c(Cl)c(F)c(Br)c4[nH]ncc34)ccc2n1)[C@@H]1C[C@@H]1F [Example 261, (1S,2S)-N-(6-(7-bromo-5-chloro-6-fluoro-1H-indazol-4-yl)imidazo[1,2-a]pyridin-2-yl)-2-fluorocyclopropane-1-carboxamide] | < 100 |
| Cc1c(F)c(F)c2[nH]ncc2c1-c1ccc2nc(NC(=O)[C@@H]3C[C@@H]3F)cn2c1 [Example 262, (1S,2S)-N-(6-(6,7-difluoro-5-methyl-1H-indazol-4-yl)imidazo[1,2-a]pyridin-2-yl)-2-fluorocyclopropane-1-carboxamide] | < 100 |
